Experimental data: PMC9604255, “Discovery of Simple Diacylhydrazine-Functionalized Cinnamic Acid Derivatives as Potential Microtubule Stabilizers” (International Journal of Molecular Sciences, 2022)
Read-outs that look alike come from different tables or passages of the source.

Assays:
A549 cancer cells = experiment: MTT antiproliferative assay, A549; format: cell-based, human; conditions: MTT assay after 48 h
From the text: (§1) An A549 (human non-small cell lung cancer cell line) cell line was purchased from the Shanghai Cell Bank of the Chinese Academy of Sciences; PC-3 (human prostate cancer cell line) cell line was donated by the Key Laboratory of Natural Product Chemistry of the Chinese Academy of Sciences of Guizhou Province; HepG2 (human liver cancer cell line) and NRK 52E (normal rat kidney cell line) cell line was donated by Guizhou Medical University; all cell lines were kept by the laboratory.
(§2) The antiproliferative activity of target compounds against A549, PC-3, HepG2, and NRK-52E were determined by MTT assay, as described in previous articles. The assay was recorded at 490 nm by an Infinite® M200 PRO multimode microplate (Tecan, Männedorf, Switzerland).

HepG2 cancer cells = experiment: MTT antiproliferative assay, HepG2; format: cell-based, human; conditions: read-out: IC50 HepG2
From the text: as §1, §2

NRK-52E cells = experiment: MTT cytotoxicity assay, normal NRK-52E cells; format: cell-based; conditions: MTT assay after 48 h, normal rat kidney cell line
From the text: as §1, §2

PC-3 cancer cells = experiment: MTT antiproliferative assay, PC-3; format: cell-based, human; conditions: MTT assay after 48 h
From the text: as §1, §2

A549 cells = experiment: Scratch test (cell migration); format: cell-based, human
Procedure: According to the previous methods, A549 cells of the logarithmic growth stage were cultured in 6-well plates with two lines on the back, with each well containing a density of 1 × 10^6 cells/mL. After the cells adhered to the wall, three uniform thin lines were drawn in each well by a sterile pipette tip. Afterward, the medium containing 1% fetal bovine serum (FBS) and various concentrations of compounds were added in wells. After the different time of incubation, the cells were performed by an inverted fluorescence microscope. Then the scratch healing rate was calculated: Migration distance (n h) = edge distance (0 h) − edge distance (12 h or 24 h).

HepG2 cells [1] = experiment: Cell cycle analysis by flow cytometry; format: cell-based, human; conditions: HepG2, 24 μM, 24 h (0 μM: 17.68%)
Procedure: The cells in the 6-well plates were carefully collected 24 h after dosing. After the cells were washed with pre-cooled PBS, the pre-cooled 70% ethanol solution was added for fixation (4 °C overnight). After that, the cells were washed with PBS, and incubated with 1 mg/mL RNase A for 30 min at 37 °C). Then, […] PI staining solution was added and incubated in the dark for 30 min at 4 °C. Finally, the cell arrest was analyzed by the FACSCalibur™ flow cytometer (Becton Dickinson Immunocytometry Systems, San Jose, CA, USA) as previously described.

[2] = system: A549, PC-3 and HepG2 cancer cell lines; experiment: MTT antiproliferative assay, three cancer lines together; format: cell-based; conditions: Homo sapiens; range over A549, PC-3 and HepG2; read-out: IC50 values against three cancer lines
From the text: as §1, with “laboratory. Cells were maintained in RPMI 1640 or DMEM complete medium.” for “laboratory.”
as §2, with “Switzerland). Curcumin, gefitinib, and colchicine were used as positive controls.” for “Switzerland).”

HepG2 cells [3] = experiment: Hoechst apoptosis experiment; format: cell-based, human; conditions: HepG2, 6 μM, 24 h
Procedure: In this assay, HepG2 cells were seeded in 6-well plates, after 24 h of incubation, different compounds were added at various concentrations, and cells were incubated again for 24 h. Afterward, the medium was removed and cells were washed twice with phosphate-buffered saline (PBS, 10 mM, pH 7.3), and fixed with 4% paraformaldehyde for 15 min at room temperature, then stained with […] Hoechst 33258 in PBS for 20 min at 37 °C in the dark. After incubation, the cells were incubated with an anti-fluorescent attenuator and imaged with an inverted fluorescence microscope.

[4] = system: cellular microtubule network of HepG2 cells; experiment: Immunofluorescence staining of tubulin; format: cell-based, human; conditions: 3 and 6 μM, 24 h
Procedure: According to the previous methods, compound solutions of various concentrations were added to a 6-well plate in which HepG2 cells had been seeded for 12 h. After incubation for 24 h and washed with phosphate-buffered saline (PBS, 10 mM, pH 7.3), each well was treated with 4% formaldehyde solution for 15 min and washed with 0.1% Triton X-100 of phosphate-buffered saline (PBS, 10 mM, pH 7.3). After that, the fixed cells were incubated with diluted tubulin-tracker red for 40 min in a dark environment, followed by washing three times by 0.1% Triton X-100 of phosphate-buffered saline (PBS, 10 mM, pH 7.3). Finally, each well was added DAPI (2 μg/mL). Finally, the results were observed using a Nikon ECLIPSE Ti-S fluorescent microscope (Nikon Co, Tokyo, Japan).

tubulin [5] = molecular target: T1, tubulin (Sus scrofa, UniProt P02554); experiment: Tubulin polymerization assay in vitro; format: biochemical; conditions: 10 μM and 20 μM; 4 mg/mL tubulin, 37 °C, 340 nm
T1 construct: purchased Cytoskeleton, Inc. BK004P
Procedure: The tubulin polymerization assay in vitro was determined by HTS-Tubulin Polymerization Assay Kit (#BK004P, Cytoskeleton, Inc., Denver, CO, USA) as described in previous articles. The plate was pre-warmed at 37 °C, and the reaction assay contained 100 μL 4 mg/mL tubulin in G-PEM buffer. Then, 10 μL (10×) compounds solution or 100 μM paclitaxel solution as a control. Finally, the polymerization was carried out at 37 °C and recorded at 340 nm each 10 s for 70 min using Cytation™ 5 multi-mode readers.

tubulin [6] = experiment: Tubulin polymerization via TEM; format: biochemical; conditions: 20 μM + 4 mg/mL tubulin
Procedure: Briefly, according to the protocol of tubulin polymerization assay, the 100 μL centrifuge tubes were pre-warmed at 37 °C, and the reaction assay contained 20 μL 4 mg/mL tubulin in G-PEM buffer. Then, 2 μL (10×) compounds solution was added. Finally, the assay was carried out at 37 °C for 30 min. The formed microtubules were transferred to Formvar-caron-coated copper grids, negatively stained with 1% phosphotungstic acid, and visualized under a transmission electron microscope.

[7] = A549, 6 μM, 12 h (control 12.5%)
[8] = A549, 6 μM, 24 h (control 24.4%)
[9] = Homo sapiens, HepG2, 48 h, MTT assay after 48 h

T1 sequence (P02554 whole entry): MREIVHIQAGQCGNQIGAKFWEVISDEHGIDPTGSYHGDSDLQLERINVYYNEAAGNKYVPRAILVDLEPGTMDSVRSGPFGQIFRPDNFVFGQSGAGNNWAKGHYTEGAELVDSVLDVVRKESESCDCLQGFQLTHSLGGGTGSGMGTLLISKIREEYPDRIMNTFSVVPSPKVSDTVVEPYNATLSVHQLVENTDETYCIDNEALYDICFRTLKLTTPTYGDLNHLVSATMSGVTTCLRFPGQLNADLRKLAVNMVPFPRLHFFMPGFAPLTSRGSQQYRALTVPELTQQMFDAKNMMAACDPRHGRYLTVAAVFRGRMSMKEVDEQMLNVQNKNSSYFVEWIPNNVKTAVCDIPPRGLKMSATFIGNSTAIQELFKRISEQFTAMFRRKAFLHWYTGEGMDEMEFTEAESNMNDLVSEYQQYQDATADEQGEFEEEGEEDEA
T1 sequence (P02550 whole entry partner): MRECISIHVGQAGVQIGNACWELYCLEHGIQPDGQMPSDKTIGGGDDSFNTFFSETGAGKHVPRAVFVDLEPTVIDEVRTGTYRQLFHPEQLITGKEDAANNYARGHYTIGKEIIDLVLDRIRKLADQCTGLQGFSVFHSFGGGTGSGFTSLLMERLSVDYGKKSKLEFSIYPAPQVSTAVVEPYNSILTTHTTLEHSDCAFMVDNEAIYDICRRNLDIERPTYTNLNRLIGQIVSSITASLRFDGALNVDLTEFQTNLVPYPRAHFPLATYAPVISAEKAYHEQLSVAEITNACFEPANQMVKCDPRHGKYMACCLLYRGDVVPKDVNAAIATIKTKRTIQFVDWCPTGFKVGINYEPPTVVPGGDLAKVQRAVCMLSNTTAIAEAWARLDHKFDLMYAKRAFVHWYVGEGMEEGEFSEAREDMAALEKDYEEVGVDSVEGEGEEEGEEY

Row | Molecule | IC50 (A549 cancer cells; Homo sapiens, A549) [µM] | IC50 (PC-3 cancer cells; Homo sapiens) [µM] | IC50 (HepG2 cancer cells; [9]) [µM] | other results
1 | COc1cc(/C=C/C(=O)CC(=O)/C=C/c2ccc(O)c(OC)c2)ccc1O [Curcumin, reference compound] | 69.6 ± 1.18 | 73.4 ± 4.99 | – | IC50 (HepG2 cancer cells; Homo sapiens, HepG2, 48 h): 40.2 ± 1.74 µM; IC50 (NRK-52E cells): > 300 µM
2 | COc1cc2ncnc(Nc3ccc(F)c(Cl)c3)c2cc1OCCCN1CCOCC1 [Gefitinib, reference compound] | – | – | – | Cell relative migration (migration rate) (A549 cells; [7]): 3.98%; Cell relative migration (migration rate) (A549 cells; [8]): 7.97%
3 | O=C(/C=C/c1ccccc1)NNC(=O)/C=C/c1ccccc1 [I1] | 26.7 ± 0.43 | 5.95 ± 1.52 | 8.17 ± 0.46 | –
4 | O=C(/C=C/c1ccccc1)NNC(=O)/C=C/c1ccccc1[N+](=O)[O-] [I2] | 7.55 ± 1.22 | 8.08 ± 2.24 | 9.33 ± 0.95 | –
5 | O=C(/C=C/c1ccccc1)NNC(=O)/C=C/c1ccccc1Cl [I3] | 6.48 ± 0.41 | 7.38 ± 0.24 | 9.53 ± 1.74 | –
6 | O=C(/C=C/c1ccccc1)NNC(=O)/C=C/c1cccc([N+](=O)[O-])c1 [I4] | 6.05 ± 0.08 | 15.8 ± 1.67 | 6.32 ± 1 | –
7 | O=C(/C=C/c1ccccc1)NNC(=O)/C=C/c1cccc(O)c1 [I5] | 5.09 ± 0.08 | 6.68 ± 0.96 | 8.69 ± 1.04 | IC50 (NRK-52E cells): 50 ± 4.4 µM
8 | COc1cccc(/C=C/C(=O)NNC(=O)/C=C/c2ccccc2)c1 [I6] | 41 ± 4.47 | 160 ± 10.9 | 46.8 ± 0.14 | –
9 | O=C(/C=C/c1ccccc1)NNC(=O)/C=C/c1ccc([N+](=O)[O-])cc1 [I7] | 4.17 ± 0.93 | 8.79 ± 3.19 | 7.63 ± 1.75 | IC50 (NRK-52E cells): 21 ± 1.75 µM
10 | O=C(/C=C/c1ccccc1)NNC(=O)/C=C/c1ccc(Cl)cc1 [I8] | 9.57 ± 1.92 | 63.2 ± 3.86 | 6.98 ± 1.3 | –
11 | O=C(/C=C/c1ccccc1)NNC(=O)/C=C/c1ccc(F)cc1 [I9] | 24.9 ± 1.54 | 4.68 ± 0.69 | 7.63 | IC50 (HepG2 cancer cells; MTT assay after 48 h): 4.75 ± 0.36 µM
12 | Cc1ccc(/C=C/C(=O)NNC(=O)/C=C/c2ccccc2)cc1 [I10] | 19.5 ± 4.95 | 70.3 ± 9.88 | 23.6 ± 2.67 | –
13 | (E)-3-(3-methoxyphenyl)-N'-((E)-3-(3-methoxyphenyl)acryloyl)acrylohydrazide [I25] | – | – | – | IC50 (A549 cancer cells): 144 ± 8.95 µM; IC50 (HepG2 cancer cells; MTT assay after 48 h): 80 ± 4.04 µM; IC50 (PC-3 cancer cells): 142 ± 6.79 µM

The next lines start with results.

Row | IC50 (A549 cancer cells; Homo sapiens, A549) [µM] | IC50 (PC-3 cancer cells; Homo sapiens) [µM] | IC50 (HepG2 cancer cells; [9]) [µM] | Molecule | other results
14 | 43 ± 7.3 | 19.2 ± 6.57 | 18.6 ± 3.9 | CC(C)c1ccc(/C=C/C(=O)NNC(=O)/C=C/c2ccccc2)cc1 [I11] | –
15 | 10.9 ± 0.25 | 39.4 ± 3.54 | 21.1 ± 4.07 | COc1ccc(/C=C/C(=O)NNC(=O)/C=C/c2ccccc2)cc1 [I12] | –
16 | 15 ± 4.9 | 22.5 ± 2.64 | 15.4 ± 0.93 | CCOc1ccc(/C=C/C(=O)NNC(=O)/C=C/c2ccccc2)cc1 [I13] | –
17 | 12.8 ± 0.6 | 7.81 ± 1.69 | 3.42 ± 0.49 | CN(C)c1ccc(/C=C/C(=O)NNC(=O)/C=C/c2ccccc2)cc1 [I14] | IC50 (NRK-52E cells): 7 ± 0.3 µM
18 | 35.8 ± 0.59 | > 300 | 31.1 ± 7.66 | COc1cc(/C=C/C(=O)NNC(=O)/C=C/c2ccccc2)ccc1O [I15] | –
19 | 16.4 ± 0.98 | 80.5 ± 5.43 | 78.5 ± 1.39 | O=C(/C=C/c1ccccc1)NNC(=O)/C=C/C1CC1 [I16] | –
20 | 13 ± 2.4 | 36 ± 0.7 | 34.5 ± 0.28 | O=C(/C=C/c1ccccc1)NNC(=O)/C=C/c1ccco1 [I17] | –
21 | 13.8 ± 0.29 | 15.9 ± 1.14 | 21.1 ± 3.76 | O=C(/C=C/c1ccccc1)NNC(=O)/C=C/c1cccs1 [I18] | –
22 | 26.6 ± 5.08 | 96.4 ± 8.36 | 89.3 ± 8.89 | Cc1ncsc1/C=C/C(=O)NNC(=O)/C=C/c1ccccc1 [I19] | –
23 | 16.3 ± 3.25 | 21.8 ± 3.15 | > 300 | O=C(/C=C/c1ccccc1)NNC(=O)/C=C/C1CCCCC1 [I20] | –
24 | 8.27 ± 0.8 | 21.6 ± 0.89 | 20.4 ± 0.86 | O=C(/C=C/c1ccccc1)NNC(=O)/C=C/C1CC=CCC1 (stereo not drawn) [I21] | –
25 | 60.2 ± 2.37 | 159 ± 5.88 | 43.3 ± 1.1 | O=C(/C=C/c1ccccc1)NNC(=O)/C=C/c1cccnc1 [I22] | –
26 | 5.99 ± 1.07 | 4.17 ± 0.57 | 3.36 ± 0.8 | COc1cccc(/C=C/C(=O)NNC(=O)/C=C/c2ccc([N+](=O)[O-])cc2)c1 [I23] | Percentage of cell, G2/M (HepG2 cells [1]): 20.56%; IC50 [2]: 3.36 to 5.99 µM; Apoptosis effect (Hoechst 33258 staining) (HepG2 cells [3]): a strong apoptotic phenomenon happened; Effect on cellular microtubule network (immunofluorescence) [4]: agminated microtubule network and wrinkled nucleus were observed; Cell relative migration (migration rate) (A549 cells; A549, 3 μM, 12 h (control 12.5%)): 8.93%; Cell relative migration (migration rate) (A549 cells; A549, 3 μM, 24 h (control 24.4%)): 18.7%; Cell relative migration (migration rate) (A549 cells; [7]): 6.07%; Cell relative migration (migration rate) (A549 cells; [8]): 13.2%; Effect on tubulin polymerization (tubulin [5]): could stabilize tubulin assembly and promote protofilament assembly in a dosage-dependent manner; Effect on tubulin polymerization seen by TEM (tubulin [6]): more large nonlinear disorganized aggregations; IC50 (NRK-52E cells): 6.99 ± 1.6 µM
27 | 5.17 ± 0.41 | 15.7 ± 2.98 | 8.08 ± 2.25 | COc1ccc(/C=C/C(=O)NNC(=O)/C=C/c2ccc([N+](=O)[O-])cc2)cc1 [I24, (E)-3-(4-methoxyphenyl)-N'-((E)-3-(4-nitrophenyl)acryloyl)acrylohydrazide] | –
28 | 11 ± 1.72 | 21 ± 2.32 | 14.5 ± 2.56 | COc1cccc(/C=C/C(=O)NNC(=O)/C=C/c2cccc(OC)c2)c1 [I26] | –
